# Experiments:
# Type in all cases: functional
# Details in all cases: read-out: ED50 (the source's name)
# A549 = test: Cytotoxicity against human A549 cells
# SK-OV-3 = test: Cytotoxicity against human SKOV3 cells
# SK-MEL-2 = test: Cytotoxicity against human SK-MEL-2 cells
# XF498 = test: Cytotoxicity against human XF498 cells
# HCT-15 = test: Cytotoxicity against human HCT15 cells
Structure (SMILES),EC50 (A549),EC50 (SK-OV-3),EC50 (SK-MEL-2),EC50 (XF498),EC50 (HCT-15)
"C[C@H](/C=C/[C@@H](C)[C@H]1CC(O)[C@H]2[C@@H]3CC(O)[C@H]4C[C@@H](O)CC[C@]4(C)[C@H]3CC[C@]12C)[C@H](C)CO (single isomer, unassigned) [CERTONARDOSTEROL E3]",0.54 µg/mL,0.69 µg/mL,0.4 µg/mL,0.33 µg/mL,0.73 µg/mL
CO[C@@H]1CO[C@@H](OCC[C@@H](CC[C@@H](C)[C@H]2[C@@H](O)[C@@H](O)[C@@H]3[C@]2(C)CC[C@@H]2[C@@]4(C)CC[C@H](O)[C@H](O)[C@@H]4[C@@H](O)C[C@]23O)C(C)C)[C@H](O)[C@H]1O [CERTONARDOSIDE I2],4.26 µg/mL,3.06 µg/mL,2.39 µg/mL,3.69 µg/mL,8.32 µg/mL
CO[C@@H]1CO[C@@H](OCC[C@@H](CC[C@@H](C)[C@H]2[C@@H](O)[C@@H](O)[C@H]3[C@@H]4C[C@H](O)[C@H]5[C@@H](O)[C@@H](O)CC[C@]5(C)[C@H]4CC[C@]23C)C(C)C)[C@H](O)[C@H]1O [CERTONARDOSIDE J2],3.41 µg/mL,3.29 µg/mL,2.36 µg/mL,3.53 µg/mL,8.2 µg/mL
CO[C@@H]1CO[C@@H](OCC[C@@H](/C=C/[C@@H](C)[C@H]2[C@@H](O)[C@@H](O)[C@H]3[C@@H]4C[C@H](O)[C@H]5[C@@H](O)[C@@H](O)CC[C@]5(C)[C@H]4CC[C@]23C)C(C)C)[C@H](O)[C@H]1O [CERTONARDOSIDE J3],0.83 µg/mL,0.74 µg/mL,0.3 µg/mL,0.45 µg/mL,2.76 µg/mL
CO[C@@H]1CO[C@@H](OCC[C@@H](CC[C@@H](C)[C@H]2[C@@H](O)[C@@H](O)[C@H]3[C@@H]4C[C@H](O)[C@H]5C[C@@H](O)CC[C@]5(C)[C@H]4CC[C@]23C)C(C)C)[C@H](O)[C@H]1O [CERTONARDOSIDE O1],1.25 µg/mL,2 µg/mL,0.68 µg/mL,0.74 µg/mL,2.28 µg/mL
CO[C@@H]1CO[C@@H](OCC[C@@H](CC[C@@H](C)[C@H]2[C@@H](O)[C@@H](O)[C@@H]3[C@]2(C)CC[C@@H]2[C@@]4(C)CC[C@H](O)C[C@@H]4[C@@H](O)C[C@]23O)C(C)C)[C@H](O)[C@H]1O [CERTONARDOSIDE P1],0.87 µg/mL,0.89 µg/mL,0.26 µg/mL,0.35 µg/mL,2.17 µg/mL
C[C@H](/C=C/[C@@H](C)[C@H]1C[C@@H](O)[C@@H]2[C@]1(C)CC[C@@H]1[C@@]3(C)CC[C@H](O)[C@H](O)[C@@H]3[C@@H](O)C[C@]12O)[C@H](C)CO [CERTONARDOSTEROL A2],1.75 µg/mL,1.13 µg/mL,0.67 µg/mL,0.89 µg/mL,2.54 µg/mL
C[C@H](/C=C/[C@@H](C)[C@H]1C[C@@H](O)[C@H]2[C@@H]3C[C@H](O)[C@H]4[C@@H](O)[C@@H](O)CC[C@]4(C)[C@H]3CC[C@@]21C)[C@H](C)CO [CERTONARDOSTEROL B2],2.33 µg/mL,2.64 µg/mL,2.23 µg/mL,2.21 µg/mL,2.71 µg/mL
C[C@H](/C=C/[C@@H](C)[C@H]1C[C@@H](O)[C@@H]2[C@]1(C)CC[C@@H]1[C@@]3(C)CC[C@H](O)C[C@@H]3[C@@H](O)C[C@]12O)[C@H](C)CO [CERTONARDOSTEROL C2],0.15 µg/mL,0.16 µg/mL,< 0.1 µg/mL,0.08 µg/mL,0.25 µg/mL
CC(C)[C@H](/C=C/[C@@H](C)[C@H]1C[C@@H](O)[C@H]2[C@@H]3C[C@H](O)[C@H]4C[C@@H](O)CC[C@]4(C)[C@H]3CC[C@@]21C)CO [CERTONARDOSTEROL D2],0.15 µg/mL,0.08 µg/mL,0.09 µg/mL,0.07 µg/mL,0.01 µg/mL
CC(C)[C@@H](CCO)CC[C@@H](C)[C@H]1C[C@@H](O)[C@H]2[C@@H]3C[C@H](O)[C@H]4C[C@@H](O)CC[C@]4(C)[C@H]3CC[C@@]21C [CERTONARDOSTEROL D3],1.36 µg/mL,1.33 µg/mL,0.68 µg/mL,0.84 µg/mL,2.48 µg/mL
C[C@H](/C=C/[C@@H](C)[C@H]1C[C@@H](O)[C@H]2[C@@H]3C[C@H](O)[C@H]4C[C@@H](O)CC[C@]4(C)[C@H]3CC[C@@]21C)[C@H](C)CO [CERTONARDOSTEROL D4],1.75 µg/mL,1.51 µg/mL,0.48 µg/mL,1.22 µg/mL,1.25 µg/mL
CC(C)[C@@H](CCO)CC[C@@H](C)[C@H]1C[C@H](O)[C@H]2[C@@H]3C[C@@H](O)[C@H]4C[C@@H](O)CC[C@]4(C)[C@H]3CC[C@@]21C [CERTONARDOSTEROL E2],0.48 µg/mL,0.83 µg/mL,0.28 µg/mL,0.4 µg/mL,1.26 µg/mL
CC(C)[C@@H](CCO)CC[C@@H](C)[C@H]1[C@@H](O)[C@@H](O)[C@H]2[C@@H]3C[C@H](O)[C@H]4C[C@@H](O)CC[C@]4(C)[C@H]3CC[C@]12C [CERTONARDOSTEROL N1],0.82 µg/mL,0.9 µg/mL,0.4 µg/mL,0.43 µg/mL,1.25 µg/mL
CC(C)[C@@H](CCO)CC[C@@H](C)[C@H]1[C@@H](O)[C@@H](O)[C@@H]2[C@]1(C)CC[C@@H]1[C@@]3(C)CC[C@H](O)C[C@@H]3[C@@H](O)C[C@]12O [CERTONARDOSTEROL O1],8.32 µg/mL,6.59 µg/mL,5.32 µg/mL,6.92 µg/mL,17.7 µg/mL
CC(C)[C@@H](CCO)CC[C@@H](C)[C@H]1[C@@H](O)[C@@H](O)[C@@H]2[C@]1(C)CC[C@@H]1[C@@]3(C)CC[C@H](O)[C@H](O)[C@@H]3[C@@H](O)C[C@]12O [CERTONARDOSTEROL P1],3.3 µg/mL,3.5 µg/mL,2.5 µg/mL,3.48 µg/mL,4.39 µg/mL
COc1cccc2c1C(=O)c1c(O)c3c(c(O)c1C2=O)C[C@@](O)(C(=O)CO)C[C@@H]3O[C@H]1C[C@H](N)[C@H](O)[C@H](C)O1 [DOXORUBICIN],0.01 µg/mL,0.08 µg/mL,0.02 µg/mL,0.06 µg/mL,0.06 µg/mL
